The source of these data is ChEMBL document CHEMBL5244236, “Antitumor activity and structure-activity relationship of heparanase inhibitors: Recent advances” (Eur J Med Chem, 2020).

Test [1] in a line: Antiangiogenic activity in VEGF-stimulated human endothelial cells assessed as inhibition of cell growth and measured after 11 days by immunohistochemical staining based analysis. The conditions noted are these: 264 h.
The target in test [2] is T1, Heparanase (Homo sapiens, UniProt Q9Y251).
T1 sequence (Q9Y251 whole entry): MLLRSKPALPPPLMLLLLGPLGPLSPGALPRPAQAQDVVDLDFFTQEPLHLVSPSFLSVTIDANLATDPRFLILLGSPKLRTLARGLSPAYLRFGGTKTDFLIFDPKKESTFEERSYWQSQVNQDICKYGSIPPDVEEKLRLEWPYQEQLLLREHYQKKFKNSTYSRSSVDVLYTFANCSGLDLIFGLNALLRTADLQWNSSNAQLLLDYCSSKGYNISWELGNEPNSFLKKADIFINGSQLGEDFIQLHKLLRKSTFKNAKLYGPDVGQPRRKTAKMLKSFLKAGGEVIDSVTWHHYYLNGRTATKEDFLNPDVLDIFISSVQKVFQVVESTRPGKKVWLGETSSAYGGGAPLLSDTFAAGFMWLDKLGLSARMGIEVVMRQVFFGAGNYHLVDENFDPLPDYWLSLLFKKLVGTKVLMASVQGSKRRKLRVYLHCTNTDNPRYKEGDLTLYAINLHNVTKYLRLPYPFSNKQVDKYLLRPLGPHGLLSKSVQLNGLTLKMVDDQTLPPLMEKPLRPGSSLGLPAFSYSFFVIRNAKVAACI
As to the kind of experiment: Inhibition of HPSE (unknown origin).

The test system of test [3] is HT-1080. As to the kind of experiment: Anti-invasive activity against human HT-1080 cells assessed as inhibition of cell invasive.
Test [4] concerns HT-1080. As to the kind of experiment: Antimigratory activity against human HT-1080 cells assessed as inhibition of cell migration.
A further test relates to B16-F10. The test is described as follows: Inhibition of cell migration in mouse B16-F10 cells by wound healing assay.
Test [5] deals with T1, Heparanase. The test is described as follows: Inhibition of human HPSE assessed as residual amount of heparin using porcine heparin as substrate preincubated for 5 mins followed by substrate addition and measured after 15 mins by spectrophotometric analysis.
Test [6] relates to HepG2. As to the kind of experiment: Antiproliferative activity against human HepG2 assessed as reduction in cell proliferation by MTT assay. The class given is functional, cell-based. For orientation: Tetrazolium assays rely on reduction of a dye to a coloured formazan, in cell work by metabolically active cells.
A short description of test [7]: Antimigratory activity against mouse Lewis lung carcinoma cell line assessed as inhibition of cell migration incubated for 24 hrs by Wound healing assay. The class given is functional, cell-based.
Test [8] concerns HepG2. As to the kind of experiment: Anti-invasive activity against human HepG2 assessed as inhibition of cell invasion incubated for 48 hrs by transwell assay. Type of test: functional, cell-based. The conditions noted are these: HepG2, 48 h.
Test [9] relates to HepG2. The test is described as follows: Antimigratory activity against human HepG2 assessed as inhibition of cell migration incubated for 48 hrs by Wound healing assay. To be noted: HepG2, 48 h. Type of test: functional, cell-based.
Test [10] in a line: Anti-invasive activity against mouse Lewis lung carcinoma cell line assessed as inhibition of cell invasion incubated for 24 hrs by transwell assay. Type of test: functional, cell-based.
Test [11] can be described thus: Antiproliferative activity against mouse Lewis lung carcinoma cell line assessed as reduction in cell proliferation by MTT assay. The class given is functional, cell-based.
A short description of test [12]: Antiangiogenic activity in bFGF-stimulated human microvascular endothelial cells assessed as inhibition of cell growth incubated for 72 hrs. Type of test: functional, cell-based, Cardiac microvascular endothelial cell.

Where only a bound is given, the exact number is not on record here.

A word on the IC50: it is the concentration that gives 50% inhibition. With `O=C(O)c1ccc2c(c1)C(=O)N(c1cccc(-c3nc4ccccc4o3)c1)C2=O`, the IC50 in [1] is 40 µM.

For the molecule `CCCCCCCCCCCCCCCC(=O)C1=C(OC)[C@@H](CO)OC1=O`, the IC50 on Heparanase [2] was > 100 µM.

Turning to `CCCCCCCCCCCCCCCC(=O)C1=C(OCc2ccccc2)[C@@H](CO)OC1=O`, the IC50 in the test on HT-1080 [3] and in the test with HT-1080 [4] was 3 µM each time.

As to `CCCCCCCCCCCCCCCc1cc(O[C@@H]2O[C@H](C(=O)O)[C@@H](O)[C@H](O)[C@H]2O)cc(O)c1C(=O)Oc1cc(C)c(C(=O)O)c(O)c1`, the 50% inhibitory concentration (IC50) was determined as 15 µM with B16-F10 and 3 µM at Heparanase [5].

In the case of `CCCCCCCCCCCCCCCc1cc(O[C@@H]2O[C@H](C(=O)OC)[C@@H](O)[C@H](O)[C@H]2O)cc(O)c1C(=O)Oc1cc(C)c(C(=O)O)c(O)c1`, half-maximal inhibition with B16-F10 (IC50) required 30 µM.

`Oc1c(I)cc(I)cc1-c1nn2c(-c3ccccc3)nnc2s1`: the IC50 in the test on HepG2 [6] worked out at 8.3 µM; in test [7] it was 5 µM; in the test on HepG2 [8], 5 µM; in the test on HepG2 [9] it was 5 µM; in test [10], 5 µM; in [11], 11.9 µM.

Turning to `CCCCCCCCCCCCCCCC(=O)C1=C(OC(C)C)[C@@H](CO)OC1=O`, the half-inhibitory concentration (IC50) against Heparanase [2] was > 100 µM.

With `Cc1ccc(C(=O)Nc2ccc(S(=O)(=O)O)c3cc(S(=O)(=O)O)cc(S(=O)(=O)O)c23)cc1NC(=O)c1cccc(NC(=O)Nc2cccc(C(=O)Nc3cc(C(=O)Nc4ccc(S(=O)(=O)O)c5cc(S(=O)(=O)O)cc(S(=O)(=O)O)c45)ccc3C)c2)c1` [SURAMIN], in test [12], the IC50 was 0.538 µM.
